# Measured values as given in paper PMC3230571 (International Journal of Nanomedicine, 2011).
# System: rats with streptozotocin-induced diabetes
# Test: Hypoglycemic effect and relative bioavailability after oral administration
# Assay type: in vivo, rat
# Details: diabetic rats fasted 12 hours, oral 20 IU/kg, n = 6
substance,measurement,value
insulin,Hypoglycemic effect (plasma glucose relative to the initial value),did not appreciably lower the blood glucose levels
